From article PMC3171737 (Journal of medicinal chemistry, 2011)
pEC50, pIC50: −log10 of the molar value. Read-outs that look alike come from different tables or passages of the source. Values belong to the compound of their own block, whether it stands above or below them.

Tests used:
[1] = system: H3K9me2 levels in MDA-MB-231 cells; assay: H3K9me2 In-Cell Western; format: cell-based
[2] = system: MDA-MB-231 cells; assay: MTT cell toxicity assay, MDA-MB-231; format: cell-based; conditions: Homo sapiens, MDA-MB-231, 48 h, read-out: MTT EC50
[3] = system: H3K9me2 levels in MCF7 cells; assay: H3K9me2 ICW assay, MCF7; format: cell-based; conditions: Homo sapiens, MCF7, 48 h, read-out: ICW IC50
[4] = system: H3K9me2 levels in PC3 cells; assay: H3K9me2 ICW assay, PC3; format: cell-based; conditions: Homo sapiens, PC-3, 48 h, read-out: ICW IC50
[5] = system: H3K9me2 levels in 22RV1 cells; assay: H3K9me2 ICW assay, 22RV1; format: cell-based; conditions: Homo sapiens, 22Rv1, 48 h, read-out: ICW IC50
[6] = system: H3K9me2 levels in HCT116 wt cells; assay: H3K9me2 ICW assay, HCT116 wt; format: cell-based; conditions: Homo sapiens, HCT-116, 48 h, read-out: ICW IC50
[7] = system: HCT116 wt cells; assay: MTT assay, HCT116 wt; format: cell-based; conditions: Homo sapiens, HCT-116, 48 h, read-out: MTT EC50
[8] = system: HCT116 p53−/− cells; assay: MTT assay, HCT116 p53−/−; format: cell-based; conditions: Homo sapiens, HCT-116, 48 h, read-out: MTT EC50
[9] = target: T1, G9a (Homo sapiens, UniProt Q96KQ7); assay: G9a SAHH-coupled assay; format: biochemical; conditions: versus compound 5
T1 sequence (Q96KQ7 1-1210): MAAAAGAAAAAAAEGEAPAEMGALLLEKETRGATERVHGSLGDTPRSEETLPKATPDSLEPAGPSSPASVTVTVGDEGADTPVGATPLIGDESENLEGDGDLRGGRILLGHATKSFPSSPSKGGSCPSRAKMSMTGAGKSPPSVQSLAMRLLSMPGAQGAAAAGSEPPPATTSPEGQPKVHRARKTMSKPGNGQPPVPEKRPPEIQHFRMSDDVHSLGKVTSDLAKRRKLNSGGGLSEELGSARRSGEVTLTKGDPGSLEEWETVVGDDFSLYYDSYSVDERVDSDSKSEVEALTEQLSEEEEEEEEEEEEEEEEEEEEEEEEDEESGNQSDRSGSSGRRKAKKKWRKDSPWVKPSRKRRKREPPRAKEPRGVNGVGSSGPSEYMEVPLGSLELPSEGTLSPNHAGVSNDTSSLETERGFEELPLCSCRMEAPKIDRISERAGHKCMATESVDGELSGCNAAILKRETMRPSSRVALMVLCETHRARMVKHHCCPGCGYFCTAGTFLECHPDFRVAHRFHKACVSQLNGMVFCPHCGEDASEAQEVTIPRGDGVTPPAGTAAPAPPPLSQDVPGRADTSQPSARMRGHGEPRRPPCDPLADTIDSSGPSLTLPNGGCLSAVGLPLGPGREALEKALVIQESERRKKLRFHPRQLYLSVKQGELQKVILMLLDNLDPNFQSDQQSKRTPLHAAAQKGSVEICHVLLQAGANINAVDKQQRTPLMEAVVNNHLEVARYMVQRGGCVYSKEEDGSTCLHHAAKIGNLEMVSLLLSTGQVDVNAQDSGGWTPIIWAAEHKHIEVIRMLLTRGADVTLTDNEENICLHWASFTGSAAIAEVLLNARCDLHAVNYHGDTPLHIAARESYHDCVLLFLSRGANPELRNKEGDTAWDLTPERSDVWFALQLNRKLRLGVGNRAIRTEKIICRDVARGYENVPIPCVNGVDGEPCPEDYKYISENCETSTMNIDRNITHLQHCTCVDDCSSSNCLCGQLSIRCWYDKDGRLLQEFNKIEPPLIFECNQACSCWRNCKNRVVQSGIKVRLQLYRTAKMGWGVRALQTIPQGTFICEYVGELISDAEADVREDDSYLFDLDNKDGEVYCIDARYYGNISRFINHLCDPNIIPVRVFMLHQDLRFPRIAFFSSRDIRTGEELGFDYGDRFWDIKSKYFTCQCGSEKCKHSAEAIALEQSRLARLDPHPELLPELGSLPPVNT

[10] = Homo sapiens, MDA-MB-231, 48 h, read-out: Cellular IC50 (Reduction of H3K9me2 (ICW)), Table 4, MDA-MB-231 cells, 48 h
[11] = Homo sapiens, MDA-MB-231, 48 h, read-out: Cellular IC50 (Reduction of H3K9me2 (ICW)), Table 2, MDA-MB-231 cells, 48 h
[12] = read-out: Cellular IC50 (Reduction of H3K9me2 (ICW)), Table 2, MDA-MB-231 cells, 48 h

Structure (SMILES): COc1cc2c(NC3CCN(C4CCCCC4)CC3)nc(N3CCCN(C)CC3)nc2cc1OCCCN1CCCCC1 [Compound 26, N-(1-cyclohexylpiperidin-4-yl)-6-methoxy-2-(4-methyl-1,4-diazepan-1-yl)-7-(3-(piperidin-1-yl)propoxy)quinazolin-4-amine]
pIC50 [1, 10]: > 7.22

Structure (SMILES): COc1cc2c(NC3CCN(C)CC3)nc(N3CCCN(C)CC3)nc2cc1OCCCN(C)C [Compound 2]
pIC50 ([1]; Homo sapiens, MDA-MB-231, 48 h, read-out: Cellular IC50 (Reduction of H3K9me2 (ICW)), Table 1, MDA-MB-231 cells, 48 h): < 5.30

Structure (SMILES): COc1cc2c(NC3CCN(C(C)C)CC3)nc(C3CCCCC3)nc2cc1OCCCN1CCCC1 [Compound 5, 2-Cyclohexyl-N-(1-isopropylpiperidin-4-yl)-6-methoxy-7-(3-(pyrrolidin-1-yl)propoxy)quinazolin-4-amine]
pIC50 ([1]; Homo sapiens, MDA-MB-231, 48 h, read-out: Cellular IC50 (Reduction of H3K9me2 (ICW))): 7.09
pIC50 [1, 11]: ≥ 7.00
pIC50 ([1]; Homo sapiens, MDA-MB-231, 48 h, read-out: ICW IC50): 7.09
pEC50 [2]: 4.96
pIC50 [3]: 7.15
pIC50 [4]: 7.23
pIC50 [5]: 7.32
pIC50 [6]: 6.68
pEC50 [7]: 4.96
pEC50 [8]: 4.96

Structure (SMILES): COc1cc2c(NC3CCN(C(C)C)CC3)nc(N3CCCN(C(C)C)CC3)nc2cc1OCCCN1CCCCC1 [Compound 25, 2-(4-Isopropyl-1,4-diazepan-1-yl)-N-(1-isopropylpiperidin-4-yl)-6-methoxy-7-(3-(piperidin-1-yl)propoxy)quinazolin-4-amine]
pIC50 [1, 10]: > 7.22

Structure (SMILES): COc1cc2c(NC3CCN(C(C)C)CC3)nc(C3CCCCC3)nc2cc1OCCCN1CCCCC1 [Compound 24a, 2-Cyclohexyl-N-(1-isopropylpiperidin-4-yl)-6-methoxy-7-(3-(piperidin-1-yl)propoxy)quinazolin-4-amine]
Fold lower potency in the G9a biochemical assay compared to compound 5 [9]: about 10 fold

Structure (SMILES): COc1cc2c(NC3CCN(C4CCCCC4)CC3)nc(N3CCCN(C(C)C)CC3)nc2cc1OCCCN1CCCCC1 [Compound 6, N-(1-cyclohexylpiperidin-4-yl)-2-(4-isopropyl-1,4-diazepan-1-yl)-6-methoxy-7-(3-(piperidin-1-yl)propoxy)quinazolin-4-amine]
pIC50 [1, 10]: > 7.22

Structure (SMILES): COc1cc2c(NC3CCN(CC4CCCCC4)CC3)nc(N3CCCN(C(C)C)CC3)nc2cc1OCCCN1CCCCC1 [Compound 7, N-(1-(cyclohexylmethyl)piperidin-4-yl)-2-(4-isopropyl-1,4-diazepan-1-yl)-6-methoxy-7-(3-(piperidin-1-yl)propoxy)quinazolin-4-amine]
pIC50 [1, 10]: > 7.22

Further lines, results first:

pIC50 [1, 11]: ≥ 7.00
pIC50 [1, 12]: 7.00
Structure (SMILES): COc1cc2c(NC3CCN(C(C)C)CC3)nc(N3CCCCCC3)nc2cc1OCCCN1CCCC1 [Compound 17i, 2-(Azepan-1-yl)-N-(1-isopropylpiperidin-4-yl)-6-methoxy-7-(3-(pyrrolidin-1-yl)propoxy)quinazolin-4-amine]

pIC50 [1, 11]: ≥ 7.00
pIC50 [1, 12]: 7.00
Structure (SMILES): COc1cc2c(NC3CCN(C(C)C)CC3)nc(N3CCCN(C4CCCCC4)CC3)nc2cc1OCCCN1CCCC1 [Compound 17d, 2-(4-Cyclohexyl-1,4-diazepan-1-yl)-N-(1-isopropylpiperidin-4-yl)-6-methoxy-7-(3-(pyrrolidin-1-yl)propoxy)quinazolin-4-amine]

pIC50 [1, 11]: ≥ 7.00
Structure (SMILES): COc1cc2c(NC3CCN(C(C)C)CC3)nc(N3CCCN(Cc4ccccc4)CC3)nc2cc1OCCCN1CCCC1 [Compound 17g, 2-(4-Benzyl-1,4-diazepan-1-yl)-N-(1-isopropylpiperidin-4-yl)-6-methoxy-7-(3-(pyrrolidin-1-yl)propoxy)quinazolin-4-amine]

pIC50 [1, 11]: ≥ 7.00
Structure (SMILES): COc1cc2c(NC3CCN(C(C)C)CC3)nc(N3CCCN(CC4CCCCC4)CC3)nc2cc1OCCCN1CCCC1 [Compound 17e, 2-(4-(Cyclohexylmethyl)-1,4-diazepan-1-yl)-N-(1-isopropylpiperidin-4-yl)-6-methoxy-7-(3-(pyrrolidin-1-yl)propoxy)quinazolin-4-amine]
